The text below walks through data of US5196352A, “New FK-506 cytosolic binding protein” (Merck & Co., Inc., priority 1991, dated 1993).

The target of test [1] is HCB protein PPIase activity (Homo sapiens, UniProt P62942). The test can be described thus: PPIase assay of HCB protein (N-succinyl-Ala-Ala-Pro-Phe-p-nitroanilide, chymotrypsin coupled).
Procedure: (§1) Briefly, the PPIase assay measures the "cis" to "trans" isomerization of the proline-alanine peptide bond in the peptide, N-succinyl-Ala-Ala-Pro-Phe-p-nitroanilide. When in the "trans" form, the peptide is readily cleaved by chymotrypsin and the appearance of p-nitroanilide can be quantitated spectrophotometrically at 405 nm.
(§2) After 1.0 minutes, 30 ul of 2.0 mg/ml chymotrypsin (Sigma) in 100 mM Tris-HCl, pH 7.8 was added. After brief mixing, the absorbance was monitored at 405 nm in either a Perkin-Elmer 4B or Beckman DU 68 spectrophotometer. Absorbance measurements were taken at 3 or 5 second intervals for 4 minutes. A plot of Abs405 [steady state]--Abs405[time=t] versus time was made on semi-log paper. From the straight line, the time constant for Abs405 [steady state]--Abs405 [time=t] to fall by l/e was calculated. The reciprocal of this constant yields the rate constant k.
For test [2], the system named is cyclophilin PPIase activity. To be noted: concentration of 1 uM.
Procedure: as §1, §2
Test [3] deals with low molecular weight cytosolic component. The test can be described thus: Direct binding of [3H]FK-506 to JURKAT cytosol, complex by HPLC gel filtration, competition with unlabeled compound. Also noted: species or system human. As to conditions: 200 fold molar excess of unlabeled compound; 16 nM [3H]FK-506, 200 μg cytosol protein. The method, then: A cell-free extract was prepared from JURKAT cells by lysing […] cells in 0.5 ml of 10 mM Tris-HCl, pH 7.5 containing 1 mM MgCl as described in the legend for FIG. 3.
Background: SEC sorts molecules by how far they enter the pores of the column.

The subject of test [4] is JURKAT cytosol. The test can be described thus: LH-20 binding assay with JURKAT cytosol. The arrangement: species or system human. To be noted: for Bound (cpm), specifically bound: 0.5 nM labeled compound; for effect of heating on binding to JURKAT cytosol (in words): heated cytosol.
Test [5] concerns the target purified calf thymus cyclophilin (Bos taurus, UniProt P62935). The test can be described thus: LH-20 binding assay with purified cyclophilin. To be noted: for Bound (cpm), specifically bound: cyclophilin, 100 ng, 6.0 nM labeled compound.
The test system of test [6] is IL-2 secretion in JURKAT cells. The test can be described thus: Inhibition of IL-2 secretion in JURKAT cells stimulated with PMA and ionomycin (ELISA). In kind it is cell-based, human. In general terms: ELISA stands for enzyme-linked immunosorbent assay.
Procedure: Inhibition of IL-2 secretion in JURKAT cells stimulated with PMA and ionomycin by FK-506 and [^3 H]dihydro FK-506. JURKAT cells (equivalent to those available from the ATCC, supra) were cultured in RPMI 1640 media (Cellgro, Mediatech, Wash. D.C.) containing 1% Pen/Strep (Gibco), 1 mM Glutamine and 10% heat-inactivated fetal calf serum (Hazleton). For assay of IL-2 secretion by JURKAT cells, cells were cultured for 16 hr. in 96-well microtiter plates (Costar) at […] cells/ml in the above media containing 10 ng/ml of PMA (Sigma) and 5 μM ionomycin (Calbiochem) along with the concentrations of FK-506 or [^3 H]FK-506 indicated.
The target of test [7] is T1, JURKAT cytosol (Homo sapiens, UniProt P62942).
T1 construct: endogenous in cells; host or cells: JURKAT (human T-cell line), crude cytosol
The test can be described thus: LH-20 binding assay with JURKAT cytosol.

[8] abbreviates: JURKAT cytosol 40 μg heated 56 C., 15 min.

Sequence of purified calf thymus cyclophilin (P62935 whole entry): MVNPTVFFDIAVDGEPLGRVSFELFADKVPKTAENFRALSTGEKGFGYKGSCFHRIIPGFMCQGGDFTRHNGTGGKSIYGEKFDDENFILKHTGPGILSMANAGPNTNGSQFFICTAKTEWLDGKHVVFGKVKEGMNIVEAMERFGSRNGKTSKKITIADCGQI
Sequence of HCB protein PPIase activity (P62942 whole entry): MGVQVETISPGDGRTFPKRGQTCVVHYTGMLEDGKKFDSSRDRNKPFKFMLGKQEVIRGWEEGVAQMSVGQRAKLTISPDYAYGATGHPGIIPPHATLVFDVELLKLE
T1 sequence (P62942 2-108): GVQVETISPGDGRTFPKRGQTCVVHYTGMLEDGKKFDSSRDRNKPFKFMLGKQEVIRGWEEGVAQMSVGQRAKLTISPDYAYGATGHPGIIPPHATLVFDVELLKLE

Take `CCC[C@@H]1/C=C(\C)C[C@H](C)C[C@H](OC)[C@H]2O[C@@](O)(C(=O)C(=O)N3CCCC[C@H]3C(=O)O[C@H](/C(C)=C/[C@@H]3CC[C@@H](O)[C@H](OC)C3)[C@H](C)[C@@H](O)CC1=O)[C@H](C)C[C@@H]2OC` [Dihydro-FK-506]: the “inhibition of HCB protein PPIase activity (in words)” value in test [1] was “specifically inhibits”.
For `C=CC[C@@H]1/C=C(\C)C[C@H](C)C[C@H](OC)[C@H]2O[C@@](O)(C(=O)C(=O)N3CCCC[C@H]3C(=O)O[C@H](/C(C)=C/[C@@H]3CC[C@@H](O)[C@H](OC)C3)[C@H](C)[C@@H](O)CC1=O)[C@H](C)C[C@@H]2OC` [FK-506], the “inhibition of HCB protein PPIase activity (in words)” value in test [1] is recorded as “specifically inhibited”. Moreover, the “inhibition of cyclophilin PPIase activity (in words)” value in test [2] is reported as “no effect”. In addition, the “inhibition of the formation of the [^3 H]FK-506 complex” value in test [3] stood at 90%.
In the case of `[3H]C(C)C([3H])C[C@@H](C)[C@@H](O)[C@H]1C(=O)N[C@@H](CC)C(=O)N(C)CC(=O)N(C)[C@@H](CC(C)C)C(=O)N[C@@H](C(C)C)C(=O)N(C)[C@@H](CC(C)C)C(=O)N[C@@H](C)C(=O)N[C@H](C)C(=O)N(C)[C@@H](CC(C)C)C(=O)N(C)[C@@H](CC(C)C)C(=O)N(C)[C@@H](C(C)C)C(=O)N1C` (some centres unmarked) [[^3 H]CsA, [^3 H]-dihydro CsA], the “Bound (cpm), specifically bound” value in test [4] (setting [8]) is given as 0 cpm; in test [4] (JURKAT cytosol, 40 μg) it was 5,988 cpm; in test [5], 20,988 cpm. In test [4], the “effect of heating on binding to JURKAT cytosol (in words)” value is “completely aborgated”.
By Kd is commonly meant the equilibrium constant for the complex coming apart. Read a high Kd as lower affinity. Turning to `[3H]CC([3H])C[C@@H]1/C=C(\C)C[C@H](C)C[C@H](OC)[C@H]2O[C@@](O)(C(=O)C(=O)N3CCCC[C@H]3C(=O)O[C@H](/C(C)=C/[C@@H]3CC[C@@H](O)[C@H](OC)C3)[C@H](C)[C@@H](O)CC1=O)[C@H](C)C[C@@H]2OC` (some centres unmarked) [[^3 H]FK-506, [^3 H]-dihydro FK-506], the IC50 in test [6] (Homo sapiens, Jurkat, 16 h, read-out: concentration of inhibiting IL-2 secretion in JURKAT) is 1.1 nM. Further, the “inhibition of IL-2 secretion in JURKAT cells (in words)” value in test [6] (PMA and ionomycin) was “potent inhibitor”. Also, the “potency as inhibitor of IL-2 secretion, times less potent than the parent compound” value in test [6] (relative to FK-506, JURKAT cells, PMA and ionomycin) stood at 5 times. Further, the “Bound (cpm), specifically bound” value in test [4] (setting [8]) is recorded as 15,315 cpm; in test [4] (JURKAT cytosol, 40 μg), 13,585 cpm; in test [5], 0 cpm. In addition, in test [4], the “effect of heating on binding to JURKAT cytosol (in words)” value is recorded as “heat stable”. This compound came in with a Kd in test [7] of 4 nM. Moreover, the “specific binding to purified calf thymus cyclophilin (in words)” value in test [5] (LH-20 assay) is recorded as “could not detect specific binding”.
